{"source": "patent US6812229B1", "about": "“Carbamate derivative and agricultural/horticultural fungicide” (Kumiai Chemical Industry Co., Ltd., priority 1999, dated 2004)", "key": {"Erysiphe graminis": {"test_system": "Erysiphe graminis", "assay": "Test for preventive effect on wheat powdery mildew", "format": "in vivo", "conditions": "wheat seedlings (Norin-61-go), two-leaf stage, 500 ppm active ingredient, wettable powder, total diseased area of first leaves 10 days after inoculation", "description": "10 Wheat seeds (variety: Norin-61-go) were sown in each plastic pot having a diameter of 6 cm, and grown in a greenhouse. Wheat seedlings which reached a two-leaf stage were treated with 10 ml per pot of aqueous solutions of wettable powders prepared in accordance with Formulation Example 2, at a concentration of 500 ppm in terms of the active ingredients, and dried in the air. Then, the seedlings were inoculated with Erysiphe graminis spore and controlled in a greenhouse. 10 Days after the inoculation, the total diseased area of the first leaves in each pot was observed and evaluated on the basis of the standards shown in Table 21."}, "Septoria nodorum": {"test_system": "Septoria nodorum", "assay": "Test for preventive effect on Septoria leaf blotch of wheat", "format": "in vivo", "conditions": "wheat seedlings (Norin-61-go), two-leaf stage, 50 ppm active ingredient, 10 ml per pot, evaluated 10 days after inoculation with Septoria nodorum", "source_text": "[table] 10 Wheat seeds (variety: Norin-61-go) were sown in each plastic pot having a diameter of 6 cm, and grown in a greenhouse. […] Then, the seedlings were inoculated with Septoria nodorum […] controlled in a greenhouse. 10 Days after the inoculation, the total diseased area of the first leaves in each pot was observed and evaluated on the basis of the standards shown in Table 21."}, "Botrytis cinerea": {"test_system": "Botrytis cinerea", "assay": "Test for preventive effect on cucumber gray mold", "format": "in vivo", "conditions": "cucumber seedlings (Sagami-hanziro), cotyledon stage, 500 ppm active ingredient, 10 ml per pot, evaluated 3 days after inoculation with Botrytis cinerea, 22° C moist chamber", "description": "4 cucumber seeds (variety: Sagami-hanziro) were sown in each plastic pot having a diameter of 6 cm and grown in a greenhouse. Cucumber young seedlings which reached a cotyledon stage were treated with 10 ml per pot of aqueous solutions of wettable powders prepared in accordance with Formulation Example 2, at a concentration of 500 ppm in terms of the active ingredients and dried in the air. Then, the seedlings were inoculated with Botrytis cinerea spore by putting a paper disc soaked with the spore suspension on the surface of the cucumber cotyledons, and the seedlings were immediately placed in a moist chamber of 22° C. 3 Days after the inoculation, the total diseased area of the cotyledons in each pot was observed and evaluated on the basis of the standards shown in Table 24."}}}
{"smiles": "COC(=O)NCc1cc(C(C)=NOCc2cccc(Cl)c2)ccc1Cl", "note": "(single isomer, unassigned) [A-85]", "values": [{"measurement": "Evaluation", "setting": "Erysiphe graminis", "value": "A (No diseased area)"}, {"measurement": "Evaluation (total diseased area of the first leaves)", "setting": "Septoria nodorum", "value": "B (Diseased area of less than 5%)"}]}
{"smiles": "CON=C(C#N)c1ccc(Cl)c(CNC(=O)OC)c1", "note": "[A-3, 2-[4-chloro-3-(methoxycarbonylaminomethyl)phenyl]-2-methoxyiminoacetonitrile]", "values": [{"measurement": "Evaluation", "setting": "Erysiphe graminis", "value": "A (No diseased area)"}, {"measurement": "melting point", "value": "104 to 107", "unit": "°C"}, {"measurement": "Evaluation (total diseased area of the first leaves)", "setting": "Septoria nodorum", "value": "B (Diseased area of less than 5%)"}]}
{"smiles": "COC(=O)NCc1cc(C(C)=NO)ccc1Cl", "note": "[A-45, Methyl N-[2-chloro-5-(1-hydroxyiminoethyl)benzyl]carbamate]", "values": [{"measurement": "melting point", "value": "124 to 127", "unit": "°C"}]}
{"smiles": "COC(=O)NCc1cc(C(C)=NOC(C)C)ccc1Cl", "note": "[A-51]", "values": [{"measurement": "Evaluation", "setting": "Erysiphe graminis", "value": "A (No diseased area)"}, {"measurement": "Evaluation (total diseased area of the first leaves)", "setting": "Septoria nodorum", "value": "B (Diseased area of less than 5%)"}]}
{"smiles": "C=CCON=C(C)c1ccc(Cl)c(CNC(=O)OC)c1", "note": "[A-58]", "values": [{"measurement": "Evaluation", "setting": "Erysiphe graminis", "value": "A (No diseased area)"}, {"measurement": "Evaluation (total diseased area of the first leaves)", "setting": "Septoria nodorum", "value": "B (Diseased area of less than 5%)"}]}
{"smiles": "C#CCON=C(C)c1ccc(Cl)c(CNC(=O)OC)c1", "note": "[A-61]", "values": [{"measurement": "Evaluation", "setting": "Erysiphe graminis", "value": "A (No diseased area)"}, {"measurement": "Evaluation (total diseased area of the first leaves)", "setting": "Septoria nodorum", "value": "B (Diseased area of less than 5%)"}]}
{"smiles": "COC(=O)NCc1cc(C(C)=NOCCCc2ccccc2)ccc1Cl", "note": "[A-62]", "values": [{"measurement": "Evaluation", "setting": "Erysiphe graminis", "value": "A (No diseased area)"}, {"measurement": "Evaluation (total diseased area of the first leaves)", "setting": "Septoria nodorum", "value": "B (Diseased area of less than 5%)"}]}
{"smiles": "COC(=O)NCc1cc(C(C)=NOCC(=O)OC(C)(C)C)ccc1Cl", "note": "[A-64]", "values": [{"measurement": "Evaluation", "setting": "Erysiphe graminis", "value": "B (Diseased area of less than 5%)"}, {"measurement": "Evaluation (total diseased area of the first leaves)", "setting": "Septoria nodorum", "value": "A (No diseased area)"}]}
{"smiles": "COC(=O)NCc1cc(C(C)=NOCc2ccccc2F)ccc1Cl", "note": "[A-81]", "values": [{"measurement": "Evaluation", "setting": "Erysiphe graminis", "value": "A (No diseased area)"}, {"measurement": "Evaluation (total diseased area of the first leaves)", "setting": "Septoria nodorum", "value": "B (Diseased area of less than 5%)"}]}
{"smiles": "COC(=O)NCc1cc(C(C)=NOCc2cccc(F)c2)ccc1Cl", "note": "[A-82]", "values": [{"measurement": "Evaluation", "setting": "Erysiphe graminis", "value": "A (No diseased area)"}, {"measurement": "Evaluation (total diseased area of the first leaves)", "setting": "Septoria nodorum", "value": "B (Diseased area of less than 5%)"}]}
{"smiles": "COC(=O)NCc1cc(C(C)=NOCc2ccc(F)cc2)ccc1Cl", "note": "[A-83, Methyl N-{2-chloro-5-[1-(4-fluorobenzyloxyimino)ethyl]benzyl}carbamate]", "values": [{"measurement": "Evaluation", "setting": "Erysiphe graminis", "value": "A (No diseased area)"}, {"measurement": "melting point", "value": "101 to 103", "unit": "°C"}, {"measurement": "Evaluation (total diseased area of the first leaves)", "setting": "Septoria nodorum", "value": "A (No diseased area)"}]}
{"smiles": "COC(=O)NCc1cc(C(C)=NOCc2ccccc2Br)ccc1Cl", "note": "[A-87]", "values": [{"measurement": "Evaluation", "setting": "Erysiphe graminis", "value": "A (No diseased area)"}, {"measurement": "Evaluation (total diseased area of the first leaves)", "setting": "Septoria nodorum", "value": "B (Diseased area of less than 5%)"}]}
{"smiles": "COC(=O)NCc1cc(C(C)=NOCc2cccc(Br)c2)ccc1Cl", "note": "[A-88]", "values": [{"measurement": "Evaluation", "setting": "Erysiphe graminis", "value": "A (No diseased area)"}, {"measurement": "Evaluation (total diseased area of the first leaves)", "setting": "Septoria nodorum", "value": "B (Diseased area of less than 5%)"}]}
{"smiles": "COC(=O)NCc1cc(C(C)=NOCc2ccc(Br)cc2)ccc1Cl", "note": "[A-89]", "values": [{"measurement": "Evaluation", "setting": "Erysiphe graminis", "value": "A (No diseased area)"}, {"measurement": "Evaluation (total diseased area of the first leaves)", "setting": "Septoria nodorum", "value": "B (Diseased area of less than 5%)"}]}
{"smiles": "COC(=O)NCc1cc(C(C)=NOCc2ccccc2C)ccc1Cl", "note": "[A-90]", "values": [{"measurement": "Evaluation", "setting": "Erysiphe graminis", "value": "A (No diseased area)"}, {"measurement": "Evaluation (total diseased area of the first leaves)", "setting": "Septoria nodorum", "value": "A (No diseased area)"}]}
{"smiles": "COC(=O)NCc1cc(C(C)=NOCc2cccc(C)c2)ccc1Cl", "note": "[A-91]", "values": [{"measurement": "Evaluation", "setting": "Erysiphe graminis", "value": "A (No diseased area)"}, {"measurement": "Evaluation (total diseased area of the first leaves)", "setting": "Septoria nodorum", "value": "B (Diseased area of less than 5%)"}]}
{"smiles": "COC(=O)NCc1cc(C(C)=NOCc2ccc(C)cc2)ccc1Cl", "note": "[A-92]", "values": [{"measurement": "Evaluation", "setting": "Erysiphe graminis", "value": "A (No diseased area)"}, {"measurement": "Evaluation (total diseased area of the first leaves)", "setting": "Septoria nodorum", "value": "B (Diseased area of less than 5%)"}]}
{"smiles": "COC(=O)NCc1cc(C(C)=NOCc2ccc(C(C)(C)C)cc2)ccc1Cl", "note": "[A-98]", "values": [{"measurement": "Evaluation", "setting": "Erysiphe graminis", "value": "A (No diseased area)"}, {"measurement": "Evaluation (total diseased area of the first leaves)", "setting": "Septoria nodorum", "value": "A (No diseased area)"}]}
{"smiles": "COC(=O)NCc1cc(C(C)=NOCc2ccccc2C(F)(F)F)ccc1Cl", "note": "[A-99]", "values": [{"measurement": "Evaluation", "setting": "Erysiphe graminis", "value": "A (No diseased area)"}, {"measurement": "Evaluation (total diseased area of the first leaves)", "setting": "Septoria nodorum", "value": "B (Diseased area of less than 5%)"}]}
{"smiles": "COC(=O)NCc1cc(C=NOCc2ccccc2)ccc1C", "note": "[A-112]", "values": [{"measurement": "Evaluation", "setting": "Erysiphe graminis", "value": "A (No diseased area)"}, {"measurement": "Evaluation (total diseased area of the first leaves)", "setting": "Septoria nodorum", "value": "B (Diseased area of less than 5%)"}]}
{"smiles": "COC(=O)NCc1cc(C(C)=NOCc2ccccc2)ccc1C", "note": "[A-113]", "values": [{"measurement": "Evaluation", "setting": "Erysiphe graminis", "value": "A (No diseased area)"}, {"measurement": "Evaluation (total diseased area of the first leaves)", "setting": "Septoria nodorum", "value": "A (No diseased area)"}]}
{"smiles": "CON=C(C)c1cccc(CON=C(C)c2ccc(Cl)c(CNC(=O)OC)c2)c1", "note": "[A-291]", "values": [{"measurement": "Evaluation (total diseased area of the cotyledons)", "setting": "Botrytis cinerea", "value": 3}, {"measurement": "Evaluation (total diseased area of the first leaves)", "setting": "Septoria nodorum", "value": "A (No diseased area)"}]}
{"smiles": "COC(=O)NCc1cc(C(C)=NOCc2cccc(C)n2)ccc1C", "note": "[A-434, Methyl N-{2-methyl-5-[1-(6-methylpyridin-2-ylmethoxy)iminoethyl]benzyl}carbamate]", "values": [{"measurement": "melting point", "value": "72 to 75", "unit": "°C"}]}
